{"source": "patent US8372380B2", "about": "“In vivo imaging of sulfotransferases” (The Regents of the University of California, priority 2007, dated 2013)", "key": {"[1]": {"molecular_target": "T1, sulfotransferase SULT1A1 (Rattus norvegicus, UniProt P17988)", "T1 construct": "from tissue; host or cells: living Sprague-Dawley rat (brain, chest, abdomen)", "T1 sequence (P17988 whole entry)": "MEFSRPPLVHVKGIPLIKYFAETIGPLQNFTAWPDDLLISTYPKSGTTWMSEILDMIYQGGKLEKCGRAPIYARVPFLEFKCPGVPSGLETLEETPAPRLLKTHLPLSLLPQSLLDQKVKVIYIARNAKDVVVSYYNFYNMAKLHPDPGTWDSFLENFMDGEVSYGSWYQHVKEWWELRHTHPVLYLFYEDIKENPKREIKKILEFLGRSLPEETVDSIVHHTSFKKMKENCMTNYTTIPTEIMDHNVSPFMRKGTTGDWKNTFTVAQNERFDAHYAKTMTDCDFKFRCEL", "assay": "In vivo microPET imaging of sulfotransferase activity and inhibition in rat", "design": "species or system Sprague-Dawley rat", "method": "(§1) A bolus of a radiolabeled tracer is administered intravenously to a non-human primate, rodent, or other non-human mammal, and the distribution of tracer transport activity is followed by radiographic means, e.g., PET, microPET and/or SPECT. For PET, an intravenous dose of the tracer contains ˜0.1-3 mCi/kg (body weight) dissolved in <1 ml of 10% ethanol in saline. The identity of each organ and tissue taking up the tracer can be confirmed by CT scans. Scans can be conducted both with and without administering one or more pharmacological agents, e.g., 2,6-dichloro-4-nitrophenol, quercitin, curcumin, etc.\nFIG. 7 depicts in vivo microPET imaging of sulfotransferase activity and inhibition in a male, Sprague-Dawley rat suffering from renal hypertension, chronic progressive nephropathy, and lung inflammation, using 4-[^18F]-fluoro-3-nitrophenol as a substrate and 2,6-dichloro-4-nitrophenol as an inhibitor. 4-[^18F]-fluoro-3-nitrophenol was administered as a bolus injection (0.5 to 2.0 mCi) and the rat brain was scanned dynamically for 60 min. Subsequently, the chest was scanned for 5 min., followed by a 5 min. scan of the abdomen."}, "[2]": {"molecular_target": "T2, sulfotransferase SULT1A1 (Homo sapiens, UniProt P50225)", "T2 construct": "purchased Sigma; host or cells: sf-9 insect cells (baculovirus)", "T2 sequence (P50225 whole entry)": "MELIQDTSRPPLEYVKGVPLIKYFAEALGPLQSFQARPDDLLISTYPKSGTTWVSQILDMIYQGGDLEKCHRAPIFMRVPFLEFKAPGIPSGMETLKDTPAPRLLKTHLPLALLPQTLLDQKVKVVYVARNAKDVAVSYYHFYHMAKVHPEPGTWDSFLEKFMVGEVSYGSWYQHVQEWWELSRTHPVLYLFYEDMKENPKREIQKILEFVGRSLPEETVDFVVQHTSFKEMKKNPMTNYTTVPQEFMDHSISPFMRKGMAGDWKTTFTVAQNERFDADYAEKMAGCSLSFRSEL", "assay": "Inhibition of SULT1A1 sulfonation of para-nitrophenol (PNP)", "assay_type": "biochemical", "details": "inhibition of SULT1A1 sulfonation of 4-nitrophenol; 37° C., 15 min, [35S]-PAPS", "from_the_text": "(§2) β-Naphthol (BN, a reference control), para-nitrophenol (PNP), estradiol (E2), dehydroepiandrosterone (DHEA), dopamine, dithiothreitol (DTT), and MgCl2 were purchased from Sigma (St. Louis, Mo.). Cytosolic extract of sf-9 insect cells infected with a baculovirus containing SULT cDNAs (SULT1A1, SULT1A3, SULT1E1, SULT2A1) were also purchased from Sigma. [^35S]-3′-Phosphoadenosine 5′-Phosphosulfate (PAPS)(1-3 Ci/mmol) was purchased from Perkin Elmer (Waltham, Mass.). Aluminum-backed silica TLC plates were purchased from Whatman.\nSubstrate sulfonation assays were performed using cytosolic sulfotransferases SULT1A1, SULT1A3, SULT1E1, and SULT2A1. Enzyme kinetic parameters were determined by using substrate concentration curves. The sulfonation reaction was carried out using [^35S]-PAPS as the sulfate donor, and the reaction mixture was analyzed using a thin-layer chromatography (TLC) method described in literature (Falany et al., 2006). Reaction mixtures consisted of 10 μL of substrates, originally dissolved in dimethyl sulfoxide and diluted to 1% with Tris-HCl buffer; 50 mM Tris-HCl buffer, pH 7.4; 0.1% bovine serum albumin; 7.5 mM DTT; and 1 μM [^35S]-PAPS in the final volume of 50 μL. The final concentration of dimethyl sulfoxide was kept at 0.2%. Reactions with SULT1E1 and SULT2A1 were supplemented with 7 mM MgCl2; reactions with SULT1A3 included 1 mM pargyline. Control reactions were performed under identical conditions without addition of substrates. Sulfonation reactions were carried out at 37° C. for 15 min. Enzymatic activity was terminated by precipitation with 50 μL of ice cold methanol and cooling the mixture at −20° C. Subsequently, 20 μL aliquots of the supernatant were spotted on silica gel TLC plates and were developed in t-butanol:acetic acid:water (8:1:1 by volume). Sulfonated products (Rf=0.66±0.05) were well separated from unreacted [^35S]PAPS, which was retained at the origin. TLC plates were exposed on digital autoradiography plates for 2 hrs and read in with a Fuji BAS-5000 digital autoradiography plate reader. The results were quantitated with the software provided with the scanner. Spots were localized and the silica gel was scraped into liquid scintillation vials. Vials were counted using MP-Ecolite+ LS fluid and a Packard Tricarb 2300TR LSC for 5 min per vial. Reactions were monitored for linearity with time and enzyme concentration to ensure the enzyme was the limiting factor.\nIn vitro inhibition reactions were performed using the standard SULT1A1 substrate, para-nitrophenol (PNP), against various 4′-substituted 2-phenyl-6-hydroxybenzothiazoles shown in Table 3. PNP was dissolved in 50 mM Tris-HCl buffer (pH 7.4), and inhibitors were dissolved in dimethyl sulfoxide and diluted to 1% dimethyl sulfoxide concentration with the Tris-HCl buffer. […]"}, "[3]": {"molecular_target": "brain SULT1A enzymes", "details": "Vietri et al., 2002b, read-out: IC50 for blocking sulfonation of R(−)-apomorphine; cited from earlier work"}, "[4]": {"molecular_target": "T3, sulfotransferase SULT1E1 (Homo sapiens, UniProt P49888)", "T3 construct": "from tissue; host or cells: living human subjects (lungs, liver, kidneys)", "T3 sequence (P49888 1-294)": "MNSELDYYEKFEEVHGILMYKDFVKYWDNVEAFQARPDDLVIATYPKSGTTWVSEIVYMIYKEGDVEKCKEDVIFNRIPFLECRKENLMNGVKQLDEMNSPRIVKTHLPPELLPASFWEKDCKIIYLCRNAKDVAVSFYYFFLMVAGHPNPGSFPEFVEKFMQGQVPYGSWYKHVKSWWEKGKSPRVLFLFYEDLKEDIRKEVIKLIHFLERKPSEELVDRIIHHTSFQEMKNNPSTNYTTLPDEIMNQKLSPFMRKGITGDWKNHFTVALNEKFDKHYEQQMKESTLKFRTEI", "assay": "In vivo PET imaging of SULT1E1 expression in humans", "details": "PET 20-45 minutes after injection", "method": "A bolus of a radiolabeled tracer is administered to a human subject by intravenous injection, and its uptake into a tumor (in the case of cancer), one or more organs of interest, and/or other tissues of the body is followed radiographically. For a 50-70 kg person, 10 mCi of an appropriate tracer from Table 1 or 2 (e.g.) is dissolved in <10 ml 10% ethanol in saline and is injected intravenously, and the distribution of the tracer is followed dynamically with PET for up to 2 hours (multiple whole-body scans at different time intervals or dynamic PET scan of a specific organ). SULT activity in organs and tissues is determined using tracer kinetic modeling from the PET determined tracer uptake data. The anatomical location of tracer uptake in both normal subjects and cancer patients can be determined using CT scans.\nFIG. 6 depicts in vivo PET imaging of sulfotransferase SULT1E1 expression in two adult male humans. […] Increased SULT1E1 expression associated with lung inflammation caused by smoking is clearly visible in the lungs of the smoker. Both subjects were scanned with PET 20-45 minutes after being injected with the tracer 2-(4′-([^11C]-methylamino)phenyl)-6-hydroxybenzothiazole. The smoker received a dose of 10.5 mCi, and the non-smoker received 10.0 mCi. The images were normalized by dividing the signal values with dose injected per kg of body weight."}, "[5]": {"molecular_target": "T4, SULT1A1 (Homo sapiens, UniProt P50225)", "T4 construct": "purchased Sigma; host or cells: sf-9 insect cells (baculovirus)", "T4 sequence (P50225 whole entry)": "as the sequence (P50225 whole entry) above", "assay": "Substrate sulfonation assay, SULT1A1", "assay_type": "biochemical", "details": "in vitro sulfonation", "from_the_text": "as §2\n(§3) Substrate sulfonation assays were performed using cytosolic sulfotransferases SULT1A1, SULT1A3, SULT1E1, and SULT2A1. Enzyme kinetic parameters were determined by using substrate concentration curves. The sulfonation reaction was carried out using [^35S]-PAPS as the sulfate donor, and the reaction mixture was analyzed using a thin-layer chromatography (TLC) method described in literature (Falany et al., 2006). […] TLC plates were exposed on digital autoradiography plates for 2 hrs and read in with a Fuji BAS-5000 digital autoradiography plate reader. The results were quantitated with the software provided with the scanner. […] Vials were counted using MP-Ecolite+ LS fluid and a Packard Tricarb 2300TR LSC for 5 min per vial. Reactions were monitored for linearity with time and enzyme concentration to ensure the enzyme was the limiting factor. […]"}, "[6]": {"molecular_target": "T5, SULT1E1 (Homo sapiens, UniProt P49888)", "T5 construct": "purchased Sigma; host or cells: sf-9 insect cells (baculovirus)", "T5 sequence (P49888 1-294)": "T3 sequence (P49888 1-294)", "assay": "Substrate sulfonation assay, SULT1E1", "assay_type": "biochemical", "details": "in vitro sulfonation", "from_the_text": "as §2, §3"}, "[7]": {"assay": "Plasma metabolite analysis of tracer in rats", "assay_type": "in vivo, Sprague-Dawley rats", "details": "rat plasma, after 10-15 min", "method": "(§4) FIG. 5 depicts in vivo microPET imaging of sulfotransferase SULT1E1 expression in healthy and inflamed lungs in 8-9 month old male Sprague-Dawley rats, using the substrate 2-(4′-([^11C]-methylamino)phenyl)-6-hydroxybenzothiazole. On the left are shown the chest and upper abdomen of a healthy control rat; on the right is a rat suffering from renal hypertension, chronic progressive nephropathy, and lung inflammation. Both animals were injected with 2.0-2.5 mCi of activity. The images shown were acquired over the period of 15-25 min after injection. […] Warmer colors represent higher levels of tracer uptake.\nMetabolite analysis was performed using reverse phase C-18 TLC plates and a mixture of methanol, acetic acid and water (80:5:15, respectively). Plasma was de-proteinated with addition of an equal volume of methanol. The supernatant was spotted on the plates and the plates developed in the mobile phase. The analysis of the plates was performed as described above in the description of the sulfonation assays (Ex. 1-25). Metabolites were identified as follows: […] samples of plasma were mixed with 500-1000 U of either […] (to remove the sulfonated metabolite) or glucoronidase (to remove glucoronidated metabolite). […] The supernatants were analyzed as described above and the results compared with the results for un-treated plasma."}, "[8]": {"system": "sulfotransferase SULT1E1", "assay": "In vivo microPET imaging of SULT1E1 expression in rats", "design": "species or system Sprague-Dawley rats", "details": "images 15-25 min after injection", "method": "as §1, §4"}, "[9]": {"details": "rat brain; Mathis et al., 2004; cited from earlier work"}}}
{"smiles": "O=[N+]([O-])c1cc(Cl)c(O)c(Cl)c1", "note": "[2,6-dichloro-4-nitrophenol]", "values": [{"measurement": "effect on SULT1A1 activity in vivo (microPET)", "setting": "[1]; 5 mg/Kg at the time of the 4-[18F]-fluoro-3-nitrophenol bolus injection", "value": "inhibitory effect on SULT1A1 activity"}]}
{"smiles": "COc1ccc(-c2nc3ccc(O)cc3s2)cc1", "note": "[Compound 17]", "values": [{"measurement": "Ki", "setting": "[2]", "value": "24 ± 2", "unit": "nM"}]}
{"smiles": "O=c1c(O)c(-c2ccc(O)c(O)c2)oc2cc(O)cc(O)c12", "note": "[quercitin]", "values": [{"measurement": "IC50", "setting": "[3]", "value": "16 ± 2.3", "unit": "nM"}]}
{"smiles": "Oc1ccc2nc(-c3ccc(F)cc3)sc2c1", "note": "[Compound 19]", "values": [{"measurement": "Ki", "setting": "[2]", "value": "140 ± 10", "unit": "nM"}]}
{"smiles": "CC(=O)Nc1ccc(-c2nc3ccc(O)cc3s2)cc1", "note": "[Compound 18]", "values": [{"measurement": "Ki", "setting": "[2]", "value": "100 ± 20", "unit": "nM"}]}
{"smiles": "[11CH3]Nc1ccc(-c2nc3ccc(O)cc3s2)cc1", "note": "[2-(4′-([^11C]-methylamino)phenyl)-6-hydroxybenzothiazole]", "values": [{"measurement": "tracer activity in liver and kidneys", "setting": "[4]", "value": "high level of activity"}, {"measurement": "tracer uptake in lungs", "setting": "[4]; versus background (muscles)", "value": "increased level of uptake compared with the background"}, {"measurement": "substrate for SULT1A1", "setting": "[5]", "value": "not a substrate for SULT1A1"}, {"measurement": "substrate for SULT1E1", "setting": "[6]", "value": "good marker of sulfotransferases, most specifically SULT1E1"}, {"measurement": "fraction of tracer in sulfated form in plasma", "setting": "[7]", "value": "~90", "unit": "%"}, {"measurement": "tracer uptake in lungs", "setting": "[8]; healthy control rat", "value": "indistinguishable from the background"}, {"measurement": "tracer uptake in lungs", "setting": "[8]; rat with lung inflammation", "value": "increased uptake"}, {"measurement": "tracer activity in liver", "setting": "[8]; rats", "value": "high level of activity"}, {"measurement": "sulfonation in brain in vivo", "setting": "[9]", "value": "sulfonated in the rat brain in vivo"}]}
{"smiles": "O=[N+]([O-])c1cc(O)ccc1[18F]", "note": "[4-[^18F]-fluoro-3-nitrophenol, 4-[^18F]Fluoro-3-nitrophenol]", "values": [{"measurement": "substrate for SULT1A1 in vivo (microPET)", "setting": "[1]; rat, bolus injection 0.5 to 2.0 mCi", "value": "is a substrate for the sulfotransferase SULT1A1"}]}
{"smiles": "CNc1ccc(-c2nc3ccc(O)cc3s2)cc1", "note": "[Compound 14]", "values": [{"measurement": "Ki", "setting": "[2]", "value": "5.1 ± 0.3", "unit": "nM"}]}
